What was measured:
[1] = system: Bcl-2; assay: Western blot of building block components, Bcl-2 expression; assay type: cell-based
Experimental: (§1) Skmel-28 melanoma cells were cultured in DMEM/F12 supplemented with 5% Fetal Bovine Serum (FBS) and 1× final concentration of Antibiotics. The cells were grown to 85% confluency and treated with building block components for 3, 6, 12 and 24 hours. The cells were then pelleted and a Western blot analysis was performed.
(§2) In the Western Blot Analysis, the cells were pelleted in cold PBS, lysed, and the protein levels were quantified using a BCA protein assay. The whole cell lysate was loaded in a 4% loading 12% running Tris-HCl gel. The proteins were then transferred to a nitrocellulose paper then blocked with a 5% milk Tris-buffered solution for 1 hour. The proteins were then exposed to primary antibodies (Bcl-2 and Caspase-3) overnight. The nitrocellulose paper was then exposed to Pico Chemilluminescent for 5 min and the protein expression was recorded. After exposure, actin was quantified using the same method. Using ImageJ the levels of protein expression were quantified. A t-Test was used to analyze for statistical significance.

[2] = system: Caspase-3; assay: Western blot of building block components, Caspase-3 expression; assay type: cell-based
Experimental: as §1, §2

[3] = system: Melanoma cells; assay: Cell proliferation assay (cell count); assay type: cell-based
Experimental: The first study examined the effect of combining 4-Hydroxy-Benzoate with Benzoquinone. Cells were incubated for 48 hours, after which a cell count was performed for the live cells. Each test group was compared to the control, and each combination groups were compared to Benzoquinone control. The compounds were statistically analyzed for the addition of Benzoquinone.
Additional studies were performed testing additional molar ratios. For the first test 4-Hydroxybenzoic were tested at concentrations of 500 nM, 1 μM, and 50 μM. These concentrations were tested in combination with 2,3-Dimethoxy-5-methyl-p-benzoquinone (Benzo). The concentration of Benzo tested were 25 μM, 50 μM, and […]. Melanoma cells were grown to 80% confluency and seeded in 6 well plates at a concentration of 40K cells per well. The cells were treated with CoQ10, 4-Hydroxybenzoate, Benzo, and a combination of 4-Hydroxybenzoate/Benzo.
A T-test was performed with p<0.05 as statistically significant.

[4] = system: pancreatic cancer; details: 5 mg/kg (Group H), after 28 days
[5] = system: HDFa cells; assay: Extracellular acidification rate (ECAR), SeaHorse XF analyzer; assay type: cell-based, human; details: HDFa
Description: (SeaHorse Biosciences Inc, North Billerica, Mass.).
In this experiment, the OCR and extracellular acidification rate (ECAR) in normal cells lines were obtained in the presence and absence of CoQ10 to determine baseline values. It was observed that in its native nutrient environment, the basal OCR rates in normal cells lines are different, and are usually a function of the physiological roles of the cells in the body.
Table 127 below describes the ECAR values (mpH/min) in HDFa cells in the presence or absence of CoQ10 under normoxic and hypoxic conditions at 5.5 mM and 22 mM glucose.

[6] = concentration not given, 24 hours
[7] = all concentrations and time points tested

SMILES: NC(Cc1ccccc1)C(=O)O (racemic) [DL-Phenylalanine]
- Bcl-2 expression [1, 6]: statistically significant decrease
- Caspase-3 expression ([2]; concentration not given, 3 hours): statistically significant increase

SMILES: O=C(O)c1ccc(O)cc1 [4-Hydroxybenzoate, 4-hydroxy-benzoate]
- cell number (live cells) vs control ([3]; 48 hours): significant decrease
- cell proliferation ([3]; HB 500 nM, 1 μM, 50 μM, p<0.05): significant decrease

SMILES: CC(=O)SCCNC(=O)CCNC(=O)[C@H](O)C(C)(C)COP(=O)(O)OP(=O)(O)OC[C@H]1O[C@@H](n2cnc3c(N)ncnc32)[C@H](O)[C@@H]1OP(=O)(O)O [Acetyl-CoA]
- Caspase-3 expression [2, 7]: no significant observed reduction in Bcl-2 or increase in Caspase-3 expression

SMILES: CC(=O)NCC(=O)O [Acetylglycine]
- Bcl-2 expression ([1]; 10 μM, 24 hour): significant decrease

SMILES: N[C@H](Cc1ccccc1)C(=O)O [D-Phenylalanine]
- Bcl-2 expression ([1]; 10 μM, 6 hours): significant reduction

SMILES: N[C@H](Cc1ccc(O)cc1)C(=O)O [D-Tyrosine]
- Caspase-3 expression ([2]; 1 μM, 12 hour): increase
- Caspase-3 expression ([2]; 1 μM, 24 hour): increase

SMILES: COc1cccc2c1C(=O)c1c(O)c3c(c(O)c1C2=O)C[C@@](O)(C(=O)CO)C[C@@H]3O[C@H]1C[C@H](N)[C@H](O)[C@H](C)O1 [Doxorubicin, reference compound]
- survival [4]: a significant number of the animals in Group H had died

SMILES: C[C@@](O)(CCO)CC(=O)O [Mevalonic Acid, mevalonic acid]
- Caspase-3 expression [2, 7]: no significant reduction in Bcl-2 expression or an increase in Caspase-3 expression

SMILES: Cc1ncc(CO)c(CO)c1O [Pyridoxine, pyridoxine]
- Bcl-2 expression [1, 6]: significant reduction

SMILES: COc1cc(C(O)C(=O)O)ccc1O (stereo not shown) [VMA, 3-methoxy-4-hydroxymandelate]
- apoptotic effect ([1]; 100 nM to 100 μM): no statistically significant apoptotic effect

SMILES: COc1cc(C(=O)O)ccc1O [Vanillic Acid, vanillic acid]
- Bcl-2 expression ([1]; 500 nM, 24 hour): significantly reduce

SMILES: COC1=C(OC)C(=O)C(C/C=C(\C)CC/C=C(\C)CC/C=C(\C)CC/C=C(\C)CC/C=C(\C)CC/C=C(\C)CC/C=C(\C)CC/C=C(\C)CC/C=C(\C)CCC=C(C)C)=C(C)C1=O [compound 31510]
- ECAR ([5]; Hypoxia (5.5 mM) glucose, 50 μM): 5 mpH/min
- ECAR ([5]; Hypoxia (5.5 mM) glucose, 100 μM): 5 mpH/min
- ECAR ([5]; Hypoxia (22 mM) glucose, 50 μM): 6 mpH/min
- ECAR ([5]; Hypoxia (22 mM) glucose, 100 μM): 8 mpH/min
- ECAR ([5]; Normoxia (5.5 mM) glucose, 50 μM): 6 mpH/min
- ECAR ([5]; Normoxia (5.5 mM) glucose, 100 μM): 6 mpH/min
- ECAR ([5]; Normoxia (22 mM) glucose, 50 μM): 5 mpH/min
- ECAR ([5]; Normoxia (22 mM) glucose, 100 μM): 5 mpH/min

Source: US10351915B2 (Berg LLC, priority 2009, dated 2019)
